Experimental data: article PMC7246325 (Drug Design, Development and Therapy, 2020)
Where two headings read alike, the source gives them in different places.

Columns and labels:
[1] = cancer patients; cited from earlier work
CYP3A4 [2] = biological target: T1, CYP3A4 (Homo sapiens, UniProt P08684); assay: In vitro CYP3A4 inhibition; format: biochemical
Safety assessment = format: in vivo, patients with advanced solid tumors; details: 23 patients
CYP2C9 [3] = biological target: CYP2C9 (Homo sapiens, UniProt P11712); assay: In vitro CYP2C9 inhibition; format: biochemical
CYP3A4 [4] = biological target: T1, CYP3A4; assay: In vitro CYP3A4 inhibition; format: biochemical; remark: listed apart in the source
CYP2C9 [5] = details: among human CYP450 isoenzymes; cited from earlier work
CYP3A4 [6] = biological target: T1, CYP3A4; assay: Predicted AUC ratios for CYP3A4 substrates; details: dose (750 mg)/250 mL
CYP3A4 [7] = details: among human CYP450 isoenzymes; cited from earlier work
[8] = warfarin 3 mg, apatinib 750 mg daily, vs single administration
[9] = any grade, 750 mg apatinib daily

T1 sequence (P08684 whole entry): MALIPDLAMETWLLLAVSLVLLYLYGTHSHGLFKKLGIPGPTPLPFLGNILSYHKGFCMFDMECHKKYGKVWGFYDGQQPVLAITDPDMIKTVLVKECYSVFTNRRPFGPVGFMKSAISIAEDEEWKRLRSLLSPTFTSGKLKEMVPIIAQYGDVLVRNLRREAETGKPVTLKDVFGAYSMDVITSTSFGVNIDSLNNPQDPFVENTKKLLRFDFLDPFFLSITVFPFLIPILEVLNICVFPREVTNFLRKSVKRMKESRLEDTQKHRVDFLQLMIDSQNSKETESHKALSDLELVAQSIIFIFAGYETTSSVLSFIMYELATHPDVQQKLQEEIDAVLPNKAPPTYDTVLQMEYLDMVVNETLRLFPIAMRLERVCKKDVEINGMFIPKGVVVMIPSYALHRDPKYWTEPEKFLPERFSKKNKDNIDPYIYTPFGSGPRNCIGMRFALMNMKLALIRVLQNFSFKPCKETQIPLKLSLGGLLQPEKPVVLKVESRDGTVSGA
Sequence of CYP2C9 (Homo sapiens, UniProt P11712) (P11712 whole entry): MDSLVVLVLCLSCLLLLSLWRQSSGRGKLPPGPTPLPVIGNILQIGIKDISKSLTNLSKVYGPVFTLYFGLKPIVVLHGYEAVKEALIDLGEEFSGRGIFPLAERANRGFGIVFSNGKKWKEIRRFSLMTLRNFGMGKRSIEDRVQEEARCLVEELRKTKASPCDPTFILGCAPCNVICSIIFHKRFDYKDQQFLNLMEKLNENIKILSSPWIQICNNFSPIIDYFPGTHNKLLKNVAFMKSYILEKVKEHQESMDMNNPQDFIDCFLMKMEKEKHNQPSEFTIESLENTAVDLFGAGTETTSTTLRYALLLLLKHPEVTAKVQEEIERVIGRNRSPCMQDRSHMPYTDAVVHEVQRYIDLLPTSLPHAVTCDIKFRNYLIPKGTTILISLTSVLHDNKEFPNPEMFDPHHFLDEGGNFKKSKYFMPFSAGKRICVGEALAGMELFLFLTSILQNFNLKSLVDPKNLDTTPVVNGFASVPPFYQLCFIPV

SMILES: CC(=O)C[C@@H](c1ccccc1)c1c(O)c2ccccc2oc1=O [S-Warfarin, S-warfarin]
- AUC0-∞ (3 mg warfarin oral + 750 mg apatinib daily, N=20, GMean (CV%)): 12600 (35.0) h×ng/mL
- Tmax (3 mg warfarin oral + 750 mg apatinib daily, N=20, median (range)): 1.00 (0.500–3.00) h
- AUC0-∞ (3 mg warfarin oral, alone, N=23, GMean (CV%)): 5190 (26.8) h×ng/mL
- Tmax (3 mg warfarin oral, alone, N=23, median (range)): 0.500 (0.500–3.00) h
- Difference of Tmax before and after coadministration of apatinib (S-warfarin, Wilcoxon signed-rank test): no significant difference
- Increase of AUC0–t (exposure) on coadministration with apatinib [8]: 92%
- Increase of Cmax on coadministration with apatinib [8]: 24%

SMILES: N#CC1(c2ccc(NC(=O)c3cccnc3NCc3ccncc3)cc2)CCCC1 [apatinib]
- t1/2 [1]: 8.01 to 10.2 h
- IC50 (CYP3A4 [2]): 1.8 µM
- Ki (CYP3A4 [2]): 0.71 µM
- Incidence of bilirubin increased (adverse event related to apatinib) (Safety assessment; [9]): 21.7%
- Incidence of fatigue (adverse event related to apatinib) (Safety assessment; [9]): 21.7%
- Incidence of hand-foot syndrome (adverse event related to apatinib) (Safety assessment; [9]): 17.4%
- Incidence of headache (adverse event related to apatinib) (Safety assessment; [9]): 47.8%
- Incidence of hypertension (adverse event related to apatinib) (Safety assessment; [9]): 73.9%
- Incidence of leukopenia (adverse event related to apatinib) (Safety assessment; [9]): 21.7%
- Incidence of proteinuria (adverse event related to apatinib) (Safety assessment; [9]): 26.1%
- Incidence of thrombocytopenia (adverse event related to apatinib) (Safety assessment; [9]): 30.4%
- Incidence of grade 3/4 drug-related hypertension (Safety assessment; grade 3/4, 750 mg apatinib daily): 17.4%
- IC50 (CYP2C9 [3]): 0.44 µM
- Ki (CYP2C9 [3]): 0.31 µM
- IC50 (CYP3A4 [4]): 0.83 µM
- Ki (CYP3A4 [4]): 0.27 µM
- Contribution of CYP2C9 to the oxidative metabolism (CYP2C9 [5]): 13.1%
- Igut (CYP3A4 [6]): 6078 µM
- Contribution of CYP3A4 to the in vitro (oxidative) metabolism (CYP3A4 [7]): 62.6%
